# From patent US20150218212A1, “FLUORINATED EPOXYKETONE-BASED TETRAPEPTIDE COMPOUNDS AND USES THEREOF AS PROTEASOME INHIBITORS” (FLUORINOV PHARMA INC., priority 2012, published 2015)
# What was measured:
# SF-295 = test: NCI screening panel, SF-295 (CNS Cancer); assay type: cell-based, human
# Method: (§1) Representative compounds of Formula I were screened using the National Cancer Institute (NCI) screening panel, which consists of a panel of human tumor cell lines, representing leukemia, melanoma, and cancers of the lung, colon, ovary, breast, prostate and renal system.
# (§2) After 24 h, two plates of each cell line are fixed in situ with TCA, to represent a measurement of the cell population for each cell line at the time of drug addition (Tz). Experimental drugs are solubilised in dimethyl sulfoxide at 400-fold the desired final maximum test concentration and stored frozen prior to use. At the time of drug addition, an aliquot of frozen concentrate is thawed and diluted to twice the desired final maximum test concentration with complete medium containing 50 μg/mL gentamicin. Additional four, 10-fold or ½ log serial dilutions are made to provide a total of five drug concentrations plus control. Aliquots of 100 μl of these different drug dilutions are added to the appropriate microtiter wells already containing 100 μl of medium, resulting in the required final drug concentrations.
# (§3) Following drug addition, the plates are incubated for an additional 48 h at 37° C., 5% CO2, 95% air, and 100% relative humidity. For adherent cells, the assay is terminated by the addition of cold TCA (trichloroacetic acid). Cells are fixed in situ by the gentle addition of 50 μl of cold 50% (w/v) TCA (final concentration, 10% TCA) and incubated for 60 minutes at 4° C. The supernatant is discarded, and the plates are washed five times with tap water and air dried. Sulforhodamine B (SRB) solution (100 μl) at 0.4% (w/v) in 1% acetic acid is added to each well, and plates are incubated for 10 minutes at room temperature. After staining, unbound dye is removed by washing five times with 1% acetic acid and the plates are air dried. Bound stain is subsequently solubilised with 10 mM trizma base, and the absorbance is read on an automated plate reader at a wavelength of 515 nm. For suspension cells, the methodology is the same except that the assay is terminated by fixing settled cells at the bottom of the wells by gently adding 50 μl of 80% TCA (final concentration, 16% TCA). Using the seven absorbance measurements [time zero, (Tz), control growth, (C), and test growth in the presence of drug at the five concentration levels (Ti)], the percentage growth is calculated at each of the drug concentrations levels. Percentage growth inhibition is calculated as: [(Ti−Tz)/(C−Tz)]×100 for concentrations for which Ti>/=Tz and [(Ti−Tz)/Tz]×100 for concentrations for which Ti<Tz.
# (§4) Three dose response parameters are calculated for each experimental agent. Growth inhibition of 50% (GI50) is calculated from [(Ti−Tz)/(C−Tz)]×100=50, which is the drug concentration resulting in a 50% reduction in the net protein increase (as measured by SRB staining) in control cells during the drug incubation. The drug concentration resulting in total growth inhibition (TGI) is calculated from Ti=Tz. The LC50 (concentration of drug resulting in a 50% reduction in the measured protein at the end of the drug treatment as compared to that at the beginning) indicating a net loss of cells following treatment is calculated from [(Ti−Tz)/Tz]×100=−50. Values are calculated for each of these three parameters if the level of activity is reached. However, if the effect is not reached or is exceeded, the value for that parameter is expressed as greater or less than the maximum or minimum concentration tested.
# MDA-MB-468 = test: NCI screening panel, MDA-MB-468 (Breast Cancer); assay type: cell-based, human
# Method: as §1, §2, §3, §4
# MCF7 = test: NCI screening panel, MCF7 (Breast Cancer); assay type: cell-based, human
# Method: as §1, §2, §3, §4
# MDA-MB-231/ATCC = test: NCI screening panel, MDA-MB-231/ATCC (Breast Cancer); assay type: cell-based, human
# Method: as §1, §2, §3, §4
# SK-MEL-28 = test: NCI screening panel, SK-MEL-28 (Melanoma); assay type: cell-based, human
# Method: as §1, §2, §3, §4
# KMS-11 = test: Cell viability (MTS) assay, KMS-11; assay type: cell-based; conditions: Homo sapiens; KMS-11, MTS, 72 hours, mean ± standard deviation
# Method: Human multiple myeloma cell lines 8226, H929, JJN3, KMH11, KMS11, KMS18, LP1, MM1S, OPM2 and U266 were grown in Iscove modified Dulbecco's medium (IMDM). Human leukemia cell lines K562, OCI-AML2 and U937 were cultured in RPMI-1640 medium. Primary peripheral blood mononuclear cells were isolated from multiple myeloma patients by Ficoll density gradient centrifugation and bone marrow aspirates were obtained from multiple myeloma patients at the Princess Margaret Cancer Centre of the University Health Network (UHN; Toronto, ON, Canada). Primary cells were cultured in IMDM. The collection and use of human tissue for this study was approved by the UHN institutional ethics review board. All cell culture media were obtained from the Ontario Cancer Institute Tissue Culture Media Facility (Toronto, ON, Canada) and were supplemented with 10% fetal calf serum, […] (Hyclone, Logan, Utah). All cells were grown in a humidified incubator at 37° C. with 5% CO2.
# Cellular viability was primarily assessed by 3-(4,5-dimethylthiazol-2-yl)-5-(3-carboxymethoxyphenyl)-2-(4-sulfophenyl)-2H-tetrazolium (MTS) assay according to the manufacturer's instructions (Promega; Madison, Wis.). Cells were first seeded at a density of 10,000 cells per well in tissue culture-treated 96-well plates. Two hours after seeding, cells were treated with compounds for 72 hours at concentrations as indicated. As a control, cells were treated with DMSO alone in every assay plate. Following treatment and the MTS assay, cell viability was independently confirmed by reading the optical density (O.D.) at 490 nm and by exclusion of trypan blue stain (Invitrogen; Burlington, ON, Canada). The viability of primary mononuclear cells was determined by staining with Annexin V.
# Table 8 summarizes the data of representative compounds of Formula I for cell viability and CT-L proteasome activity with OCI-AML-2 and KMS-11 cell lines.
SMILES,Log10GI50 (SF-295),Log10LC50 (SF-295),Log10TGI50 (SF-295),Log10GI50 (MDA-MB-468),Log10LC50 (MDA-MB-468),Log10TGI50 (MDA-MB-468),Log10GI50 (MCF7),Log10LC50 (MCF7),Log10TGI50 (MCF7),Log10GI50 (MDA-MB-231/ATCC),Log10LC50 (MDA-MB-231/ATCC),Log10TGI50 (MDA-MB-231/ATCC),Log10GI50 (SK-MEL-28),Log10LC50 (SK-MEL-28),Log10TGI50 (SK-MEL-28),IC50 (KMS-11) [nM]
"CC(C)C[C@H](NC(=O)[C@H](Cc1ccccc1)NC(=O)[C@H](COC(F)F)NC(=O)[C@H](COC(F)F)NC(=O)CN1CCOCC1)C(=O)[C@@]1(C)CO1 [Example 11, (2S)-2-[[(2S)-3-(difluoromethoxy)-2-[[(2S)-3-(difluoromethoxy)-2-[(2-morpholinoacetyl)-amino]propanoyl]amino]propanoyl]amino]-N-[(1S)-3-methyl-1-[(2R)-2-methyloxirane-2-carbonyl]butyl]-3-phenyl-propanamide]",−5.96,−5.17,−5.56,−7.62,−4.67,−7.06,<−8.00,>−4.00,>−4.00,−7.56,−4.39,−6.94,−7.20,>−4.00,−5.55,24.3 ± 0.568
"CC(C)C[C@H](NC(=O)[C@H](COC(F)F)NC(=O)[C@H](COC(F)F)NC(=O)[C@H](CCc1ccccc1)NC(=O)CN1CCOCC1)C(=O)[C@@]1(C)CO1 [Example 7, (2S)-N-[(1S)-1-(difluoromethoxymethyl)-2-[[(1S)-1-(difluoromethoxymethyl)-2-[[(1S)-3-methyl-1-[(2R)-2-methyloxirane-2-carbo-nyl]butyl]amino]-2-oxo-ethyl]amino]-2-oxo-ethyl]-2-[(2-morpholinoacetyl)amino]-4-phenyl-butanamide]",−7.60,−6.15,−6.97,−7.58,−4.78,−7.09,<−8.00,>−4.00,>−4.00,−7.64,−4.92,−7.14,−7.44,,>−4.00,19.8 ± 0.532
"CC(C)C[C@H](NC(=O)[C@H](COC(F)F)NC(=O)CN1CCOCC1)C(=O)N[C@@H](Cc1ccccc1)C(=O)N[C@@H](CC(C)C)C(=O)[C@@]1(C)CO1 [Example 2, (2S)-N-[(1S)-1-benzyl-2-[[(1S)-3-methyl-1-[(2R)-2-methyloxirane-2-carbonyl]butyl]-amino]-2-oxo-ethyl]-2-[[(2S)-3-(difluoromethoxy)-2-[(2-morpholinoacetyl)amino]propanoyl]amino]-4-methyl-pentanamide]",−7.80,−6.42,−7.28,−7.75,−4.63,−7.13,<-8.00,>−4.00,−4.94,−7.63,−4.37,−6.79,−7.50,−5.23,−6.71,21.9 ± 0.342
"CC(C)C[C@H](NC(=O)[C@H](COC(F)F)NC(=O)CN1CCOCC1)C(=O)N[C@@H](Cc1ccccc1)C(=O)N[C@@H](Cc1ccccc1)C(=O)[C@@]1(C)CO1 [Example 3, (2S)-N-[(1S)-1-benzyl-2-[[(1S)-1-benzyl-2-[(2R)-2-methyloxiran-2-yl]-2-oxo-ethyl]amino]-2-oxo-ethyl]-2-[[(2S)-3-(difluoromethoxy)-2-[(2-morpholinoacetyl)-amino]propanoyl]amino]-4-methyl-pentan-amide]",−7.34,−6.24,−6.75,<−8.00,−6.09,−7.34,<−8.00,>−4.00,−4.65,<−8.00,−4.81,−7.08,−7.65,>−4.00,−6.27,17.6 ± 0.629
